# Reference: US20060069132A1, “Azolecarboxamide herbicides” (priority 2004, published 2006)
# What was measured:
# [1] = system: common (oilseed) sunflower; assay: Test C pre-/postemergence herbicide test; format: in vivo, Helianthus annuus; conditions: for Plant response rating, Sunflower / Plant response rating (0 = no effect, 100 = complete control), Sunflower: preemergence
# Description: (§1) Seeds of plant species selected from bermudagrass (Cynodon dactylon (L.) Pers.), Surinam grass (Urochloa decumbens (Staph) R. D. Webster, previously named Brachiaria decumbens Stapf), cocklebur (Xanthium strumarium L.), corn (Zea mays L.), large crabgrass (Digitaria sanguinalis (L.) Scop.), woolly cupgrass (Eriochloa villosa (Thunb.) Kunth), giant foxtail (Setaria faberi Herrm.), goosegrass (Eleusine indica (L.) Gaertn.), johnsongrass (Sorghum halepense (L.) Pers.), kochia (Kochia scoparia (L.) Schrad.), lambsquarters (Chenopodium album L.), morningglory (Ipomoea coccinea L.), eastern black nightshade (Solanum ptycanthum Dunal), yellow nutsedge (Cyperus esculentus L.), pigweed (Amaranthus retroflexus L.), common ragweed (Ambrosia elatior L.), soybean (Glycine max (L.) Merr.), common (oilseed) sunflower (Helianthus annuus L.) and velvetleaf (Abutilon theophrasti Medik.) were planted and treated preemergence with test chemicals formulated in a non-phytotoxic solvent mixture which included a surfactant.
# (§2) At the same time, plants selected from these crop and weed species and also winter barley (Hordeum vulgare L.), blackgrass (Alopecurus myosuroides Huds.), canarygrass (Phalaris minor Retz.), chickweed (Stellaria media (L.) Vill.), downy bromegrass (Bromus tectorum L.), green foxtail (Setaria viridis (L.) Beauv.), Italian ryegrass (Lolium multiflorum Lam.), wheat (Triticum aestivum L.), wild oat (Avenafatua L.) and windgrass (Apera spica-venti (L.) Beauv.) were treated with postemergence applications of some of the test chemicals formulated in the same manner. Plants ranged in height from 2 to 18 cm (1- to 4-leaf stage) for postemergence treatments. Plant species in the flooded paddy test consisted of rice (Oryza sativa), smallflower umbrella sedge (Cyperus difformis L.), ducksalad (Heteranthera limosa (Sw.) Willd.) and barnyardgrass (Echinochloa crus-galli (L.) Beauv.) grown to the 2-leaf stage for testing. Treated plants and controls were maintained in a greenhouse for 12 to 14 days, after which time all species were compared to controls and visually evaluated. Plant response ratings, summarized in Table C, are based on a scale of 0 to 100 where 0 is no effect and 100 is complete control. A dash (-) response means no test result.
# [2] = system: johnsongrass; assay: Test C pre-/postemergence herbicide test; format: in vivo, Sorghum halepense; conditions: for Plant response rating, Johnsongrass / Plant response rating (0 = no effect, 100 = complete control), Johnsongrass: preemergence
# Description: as §1, §2
# [3] = system: eastern black nightshade; assay: Test C pre-/postemergence herbicide test; format: in vivo, Solanum ptycanthum; conditions: for Plant response rating, Nightshade / Plant response rating (0 = no effect, 100 = complete control), Nightshade: preemergence
# Description: as §1, §2
# [4] = system: lambsquarters; assay: Test C pre-/postemergence herbicide test; format: in vivo, Chenopodium album; conditions: for Plant response rating, Lambsquarters / Plant response rating (0 = no effect, 100 = complete control), Lambsquarters: preemergence
# Description: as §1, §2
# [5] = system: kochia; assay: Test C pre-/postemergence herbicide test; format: in vivo, Kochia scoparia; conditions: for Plant response rating, Kochia / Plant response rating (0 = no effect, 100 = complete control), Kochia: preemergence
# Description: as §1, §2
# [6] = system: corn; assay: Test C pre-/postemergence herbicide test; format: in vivo, Zea mays; conditions: for Plant response rating, Corn / Plant response rating (0 = no effect, 100 = complete control), Corn: preemergence
# Description: as §1, §2
# [7] = system: Surinam grass; assay: Test C pre-/postemergence herbicide test; format: in vivo, Urochloa decumbens; conditions: for Plant response rating, Surinam Grass / Plant response rating (0 = no effect, 100 = complete control), Surinam Grass: preemergence
# Description: as §1, §2
# [8] = system: woolly cupgrass; assay: Test C pre-/postemergence herbicide test; format: in vivo, Eriochloa villosa; conditions: for Plant response rating, Cupgrass, Woolly / Plant response rating (0 = no effect, 100 = complete control), Cupgrass, Woolly: preemergence
# Description: as §1, §2
# [9] = system: cocklebur; assay: Test C pre-/postemergence herbicide test; format: in vivo, Xanthium strumarium; conditions: for Plant response rating, Cocklebur / Plant response rating (0 = no effect, 100 = complete control), Cocklebur: preemergence; for Cocklebur plant response rating: Preemergence, scale 0 to 100, 0 no effect, 100 complete control
# Description: as §1, §2
# [10] = system: rice; assay: Test C flooded paddy test; format: in vivo, Oryza sativa
# How it was run: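 Postemergence sprays applied to plants 2 to 18 cm tall (1- to 4-leaf stage); paddy species grown to 2-leaf stage under flooding. After 12 to 14 days in greenhouse, visual rating versus untreated controls on 0–100 scale (0 no effect, 100 complete control).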
# [11] = 500 g ai/ha, scale 0 to 100 (0 no effect, 100 complete control), visual, 12 to 14 days
# [12] = 125 g ai/ha, scale 0 (no effect) to 100 (complete control), visual, 12 to 14 days
# [13] = 250 g ai/ha, scale 0 to 100 (0 no effect, 100 complete control), visual, 12 to 14 days
# [14] = Preemergence, 500 g ai/ha, scale 0 to 100, 0 no effect, 100 complete control
structure (smiles),measurement,setting,value
CCN(CC)C(=O)c1cccc(NC(=O)c2nn(C(C)(C)C)nc2C)c1 [Compound 418],"Plant response rating, Sunflower","[1]; 62 g ai/ha, scale 0 to 100",0
same,"Plant response rating (0 = no effect, 100 = complete control), Sunflower",[1]; 125 g ai/ha,0
same,"Plant response rating, Sunflower",[1]; [11],0
same,"Plant response rating, Johnsongrass","[2]; 62 g ai/ha, scale 0 to 100",95
same,"Plant response rating (0 = no effect, 100 = complete control), Johnsongrass",[2]; 125 g ai/ha,95
same,"Plant response rating, Johnsongrass","[2]; 250 g ai/ha, scale 0-100",95
same,"Plant response rating, Johnsongrass",[2]; [11],95
same,"Plant response rating, Nightshade","[3]; 62 g ai/ha, scale 0 to 100",95
same,"Plant response rating (0 = no effect, 100 = complete control), Nightshade",[3]; 125 g ai/ha,95
same,"Plant response rating, Nightshade",[3]; [11],100
same,"Plant response rating, Lambsquarters","[4]; 62 g ai/ha, scale 0 to 100",95
same,"Plant response rating (0 = no effect, 100 = complete control), Lambsquarters",[4]; 125 g ai/ha,100
same,"Plant response rating, Lambsquarters","[4]; 250 g ai/ha, scale 0-100",100
same,"Plant response rating, Lambsquarters",[4]; [11],100
same,"Plant response rating, Kochia","[5]; 62 g ai/ha, scale 0 to 100",65
same,"Plant response rating (0 = no effect, 100 = complete control), Kochia",[5]; 125 g ai/ha,80
same,"Plant response rating, Kochia","[5]; 250 g ai/ha, scale 0-100",85
same,"Plant response rating, Kochia",[5]; [11],95
same,"Plant response rating, Corn","[6]; 62 g ai/ha, scale 0 to 100",0
same,"Plant response rating (0 = no effect, 100 = complete control), Corn",[6]; 125 g ai/ha,10
same,"Plant response rating, Corn","[6]; 250 g ai/ha, scale 0-100",40
same,"Plant response rating, Corn",[6]; [11],80
same,"Plant response rating, Surinam Grass","[7]; 62 g ai/ha, scale 0 to 100",50
same,"Plant response rating (0 = no effect, 100 = complete control), Surinam Grass",[7]; 125 g ai/ha,85
same,"Plant response rating, Surinam Grass",[7]; [11],100
same,"Plant response rating, Cupgrass, Woolly","[8]; 62 g ai/ha, scale 0 to 100",0
same,"Plant response rating (0 = no effect, 100 = complete control), Cupgrass, Woolly",[8]; 125 g ai/ha,0
same,"Plant response rating, Cupgrass, Woolly","[8]; 250 g ai/ha, scale 0-100",10
same,"Plant response rating, Cupgrass, Woolly",[8]; [11],95
same,"Plant response rating, Cocklebur","[9]; 62 g ai/ha, scale 0 to 100",0
same,"Plant response rating (0 = no effect, 100 = complete control), Cocklebur",[9]; 125 g ai/ha,0
same,"Plant response rating, Cocklebur","[9]; 250 g ai/ha, scale 0-100",30
same,"Plant response rating, Cocklebur",[9]; [11],35
CCCn1nc(C(C)(C)C)cc1C(=O)Nc1cccc(C(=O)NCC)c1 [Compound 57],"Plant response rating (0 = no effect, 100 = complete control), Sunflower",[1]; 62 g ai/ha,0
same,"Plant response rating, Sunflower",[1]; [12],0
same,"Plant response rating, Sunflower",[1]; [13],0
same,Sunflower plant response rating,[1]; [14],0
same,"Plant response rating (0 = no effect, 100 = complete control), Johnsongrass",[2]; 62 g ai/ha,20
same,"Plant response rating, Johnsongrass",[2]; [12],65
same,"Plant response rating, Johnsongrass",[2]; [13],80
same,Johnsongrass plant response rating,[2]; [14],85
same,"Plant response rating (0 = no effect, 100 = complete control), Nightshade",[3]; 62 g ai/ha,85
same,"Plant response rating, Nightshade",[3]; [12],95
same,"Plant response rating, Nightshade",[3]; [13],100
same,Nightshade plant response rating,[3]; [14],100
same,"Plant response rating (0 = no effect, 100 = complete control), Lambsquarters",[4]; 62 g ai/ha,100
same,"Plant response rating, Lambsquarters",[4]; [12],100
same,"Plant response rating, Lambsquarters",[4]; [13],100
same,Lambsquarters plant response rating,[4]; [14],100
same,"Plant response rating (0 = no effect, 100 = complete control), Kochia",[5]; 62 g ai/ha,100
same,"Plant response rating, Kochia",[5]; [12],100
same,"Plant response rating, Kochia",[5]; [13],100
same,Kochia plant response rating,[5]; [14],100
same,"Plant response rating (0 = no effect, 100 = complete control), Corn",[6]; 62 g ai/ha,0
same,"Plant response rating, Corn",[6]; [12],0
same,"Plant response rating, Corn",[6]; [13],0
same,Corn plant response rating,[6]; [14],0
same,"Plant response rating (0 = no effect, 100 = complete control), Surinam Grass",[7]; 62 g ai/ha,0
same,"Plant response rating, Surinam Grass",[7]; [12],15
same,"Plant response rating, Surinam Grass",[7]; [13],35
same,Surinam Grass plant response rating,[7]; [14],75
same,"Plant response rating (0 = no effect, 100 = complete control), Cupgrass, Woolly",[8]; 62 g ai/ha,0
same,"Plant response rating, Cupgrass, Woolly",[8]; [12],0
same,"Plant response rating, Cupgrass, Woolly",[8]; [13],25
same,"Cupgrass, Woolly plant response rating",[8]; [14],70
same,"Plant response rating (0 = no effect, 100 = complete control), Cocklebur",[9]; 62 g ai/ha,0
same,"Plant response rating, Cocklebur",[9]; [12],0
same,"Plant response rating, Cocklebur",[9]; [13],0
same,Cocklebur plant response rating,[9]; 500 g ai/ha,0
CCn1nc(C(C)(C)C)cc1C(=O)Nc1cc(C(=O)N2CCCC2)ccc1F [Compound 242],"Plant response rating, Sunflower","[1]; 62 g ai/ha, scale 0 to 100",0
same,"Plant response rating, Sunflower","[1]; 250 g ai/ha, scale 0-100",50
same,"Plant response rating, Sunflower",[1]; [11],95
same,"Plant response rating, Johnsongrass","[2]; 62 g ai/ha, scale 0 to 100",65
same,"Plant response rating, Johnsongrass",[2]; [12],95
same,"Plant response rating, Johnsongrass","[2]; 250 g ai/ha, scale 0-100",100
same,"Plant response rating, Johnsongrass",[2]; [11],100
same,"Plant response rating, Nightshade","[3]; 62 g ai/ha, scale 0 to 100",100
same,"Plant response rating, Nightshade",[3]; [12],100
same,"Plant response rating, Nightshade","[3]; 250 g ai/ha, scale 0-100",100
same,"Plant response rating, Nightshade",[3]; [11],100
same,Rice plant response rating,"[10]; 62 g ai/ha, scale 0 to 100 (0 no effect, 100 complete control)",50
same,Rice plant response rating,"[10]; 125 g ai/ha, scale 0 to 100 (0 no effect, 100 complete control)",85
same,Rice plant response rating,"[10]; 250 g ai/ha, scale of 0 to 100, 0 is no effect, 100 is complete control",90
same,"Plant response rating, Rice","[10]; 500 g ai/ha, visual rating after 12 to 14 days, scale 0 to 100 (0 no effect, 100 complete control)",90
same,"Plant response rating, Corn","[6]; 62 g ai/ha, scale 0 to 100",0
same,"Plant response rating, Corn",[6]; [12],0
same,"Plant response rating, Corn","[6]; 250 g ai/ha, scale 0-100",20
same,"Plant response rating, Corn",[6]; [11],25
same,"Plant response rating, Surinam Grass","[7]; 62 g ai/ha, scale 0 to 100",85
same,"Plant response rating, Surinam Grass","[7]; 250 g ai/ha, scale 0-100",95
same,"Plant response rating, Surinam Grass",[7]; [11],100
same,"Plant response rating, Cupgrass, Woolly","[8]; 62 g ai/ha, scale 0 to 100",75
same,"Plant response rating, Cupgrass, Woolly",[8]; [12],80
same,"Plant response rating, Cupgrass, Woolly","[8]; 250 g ai/ha, scale 0-100",95
same,"Plant response rating, Cupgrass, Woolly",[8]; [11],100
same,"Plant response rating, Cocklebur","[9]; 62 g ai/ha, scale 0 to 100",0
same,"Plant response rating, Cocklebur",[9]; [12],0
same,"Plant response rating, Cocklebur","[9]; 250 g ai/ha, scale 0-100",35
same,Cocklebur plant response rating,[9]; 500 g ai/ha,50
